Assay [1] deals with PfcProRS (Plasmodium falciparum, UniProt Q8I5R7). Kind of assay: TR-FRET ligand displacement assay with tracer MAT379, PfcProRS. It is filed as binding. For orientation: Time-resolved FRET reads energy transfer from a long-lived donor to a nearby acceptor.
Assay [2] has as its system P. falciparum Dd2-2D4. Nature of the assay: P. falciparum asexual blood stage growth assay, wild-type Dd2-2D4. The note with it: for EC50: Plasmodium falciparum, DD2, 72 h, read-out: Dd2 (EC50 [nM]) wt.
Procedure: Asexual blood stage (ABS) P. falciparum parasites were treated with test compounds at varying concentrations for 72 h, followed by quantification of parasite growth by SYBR Green staining.
P. falciparum Asexual Blood Stage Growth Assay: This assay was performed as previously described.
The target in assay [3] is T1, HsProRS (Homo sapiens, UniProt P07814).
T1 sequence (P07814 1007-1512 limits assumed): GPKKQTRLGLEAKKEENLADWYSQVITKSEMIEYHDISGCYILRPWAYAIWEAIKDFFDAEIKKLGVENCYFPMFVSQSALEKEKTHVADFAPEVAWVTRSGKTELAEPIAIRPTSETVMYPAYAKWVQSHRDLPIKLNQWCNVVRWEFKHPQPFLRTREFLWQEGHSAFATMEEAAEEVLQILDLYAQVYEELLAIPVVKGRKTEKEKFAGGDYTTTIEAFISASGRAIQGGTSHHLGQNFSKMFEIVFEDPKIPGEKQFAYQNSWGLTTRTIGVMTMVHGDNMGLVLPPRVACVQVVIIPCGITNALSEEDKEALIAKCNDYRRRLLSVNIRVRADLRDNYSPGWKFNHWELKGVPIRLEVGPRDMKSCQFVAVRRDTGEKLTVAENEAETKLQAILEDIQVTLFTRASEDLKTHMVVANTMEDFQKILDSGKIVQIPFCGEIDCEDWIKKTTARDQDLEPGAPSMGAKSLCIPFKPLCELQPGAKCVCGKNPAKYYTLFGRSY
Kind of assay: TR-FRET ligand displacement assay with tracer MAT379, HsProRS. The assay is classed as binding.

The mark [4] stands for this setting: read-out: HsProRS (KD [nM]) +proline, 100 μM Pro.
Where [5] appears, read: no proline, no ATP, read-out: PfcProRS (KD [nM]) −.
Setting [6] is: no proline, no ATP, read-out: HsProRS (KD [nM]) −.
Where [7] appears, read: PfcProRS (KD [nM]) +proline, 100 μM Pro.
The mark [8] stands for this setting: read-out: PfcProRS (KD [nM]) +proline, 100 μM Pro.

Where a name gives a salt, the structure may show the parent alone. Read-outs that look alike come from different tables or passages of the source. Bounds are passed on as bounds.

As usually defined, the Kd is the free concentration of one partner at which half of the binding sites on the other are occupied at equilibrium, for simple one-to-one binding. A word on the EC50: it is the concentration needed to bring the measured effect to its halfway point.

Chain of PfcProRS (Q8I5R7 whole entry): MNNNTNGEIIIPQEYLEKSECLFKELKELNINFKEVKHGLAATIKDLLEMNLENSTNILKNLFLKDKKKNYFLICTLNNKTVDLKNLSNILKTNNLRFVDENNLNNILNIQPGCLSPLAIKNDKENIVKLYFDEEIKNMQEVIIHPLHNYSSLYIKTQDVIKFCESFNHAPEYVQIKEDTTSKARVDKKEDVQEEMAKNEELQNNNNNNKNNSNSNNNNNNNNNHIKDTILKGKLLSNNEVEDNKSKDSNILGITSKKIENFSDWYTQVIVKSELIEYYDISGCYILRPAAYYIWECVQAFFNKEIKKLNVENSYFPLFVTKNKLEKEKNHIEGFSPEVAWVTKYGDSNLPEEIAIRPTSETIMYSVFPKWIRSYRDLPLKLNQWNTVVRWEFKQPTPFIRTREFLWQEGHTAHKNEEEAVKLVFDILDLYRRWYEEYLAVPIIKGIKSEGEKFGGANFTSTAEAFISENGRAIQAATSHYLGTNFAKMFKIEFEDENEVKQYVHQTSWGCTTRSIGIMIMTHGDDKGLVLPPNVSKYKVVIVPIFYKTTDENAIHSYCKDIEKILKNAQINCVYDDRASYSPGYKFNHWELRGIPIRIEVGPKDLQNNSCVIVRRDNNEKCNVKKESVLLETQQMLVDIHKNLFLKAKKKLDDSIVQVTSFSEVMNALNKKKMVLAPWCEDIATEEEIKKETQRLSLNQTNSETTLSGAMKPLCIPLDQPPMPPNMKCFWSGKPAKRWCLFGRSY

With `O=C(C[C@@H]1NCCC[C@@H]1OC(=O)NS(=O)(=O)N1CCN(C(=O)Nc2nccnc2C(=O)NC2Cc3ccccc3C2)CC1)Cn1cnc2cc(Br)c(Cl)cc2c1=O` (relative stereo) [iso-MAT436(40), cis-2-(3-(7-bromo-6-chloro-4-oxoquinazolin-3(4H)-yl)-2-oxopropyl)piperidin-3-yl ((4-((3-((2,3-dihydro-1H-inden-2-yl)carbamoyl)pyrazin-2-yl)carbamoyl)piperazin-1-yl)sulfonyl)carbamate], the “fold lower affinity / reduced biochemical potency relative to MAT436” value in assay [1] was about 10 fold; in assay [1] (listed as 40), 5-10 fold. Besides, in assay [2], the “fold less active than MAT436 against ABS P. falciparum” value amounted to 3 fold. Also, in assay [3] (setting [4]), the Kd was found to be 20.8 nM.

With `CC(C)N(C(=O)Nc1nccnc1C(=O)NC1Cc2ccccc2C1)C(C)C` [Compound 5, N-(2,3-dihydro-1H-inden-2-yl)-3-(3,3-diisopropylureido)pyrazine-2-carboxamide], the Kd was over 2860 nM in assay [1] (setting [5]) and over 8720 nM in assay [3] (setting [6]). Further, in assay [2], the EC50 was over 10000 nM.

Take `CC(C)(C)OC(=O)NC1CCN(C(=O)Nc2nccnc2C(=O)NC2Cc3ccccc3C2)CC1` [Compound 7, tert-butyl (1-((3-((2,3-dihydro-1H-inden-2-yl)carbamoyl)pyrazin-2-yl)carbamoyl)piperidin-4-yl)carbamate]: the Kd in assay [3] (setting [6]) turned out to be 22.1 nM; in assay [3] (setting [4]), 34.8 nM.

With `NC1CCN(C(=O)Nc2nccnc2C(=O)NC2Cc3ccccc3C2)CC1` [Compound 8, 3-(4-aminopiperidine-1-carboxamido)-N-(2,3-dihydro-1H-inden-2-yl)pyrazine-2-carboxamide dihydrochloride], the Kd is over 2180 nM in assay [1] (setting [7]), over 2860 nM in assay [1] (setting [5]), over 5090 nM in assay [3] and over 8720 nM in assay [3] (HsProRS (KD [nM]) −).

Consider `NCC1CCN(C(=O)Nc2nccnc2C(=O)NC2Cc3ccccc3C2)CC1` [Compound 10, 3-(4-(aminomethyl)piperidine-1-carboxamido)-N-(2,3-dihydro-1H-inden-2-yl)pyrazine-2-carboxamide dihydrochloride], for which the equilibrium dissociation constant (Kd) in assay [1] (setting [7]) was over 2180 nM; in assay [1] (setting [5]), over 2860 nM; in assay [3] (HsProRS (KD [nM]) −), over 8720 nM; in assay [3] (setting [4]) it was 1360 nM.

Consider `O=C(NC1Cc2ccccc2C1)c1nccnc1NC(=O)N1CCC(CO)CC1` [Compound 11, N-(2,3-dihydro-1H-inden-2-yl)-3-(4-(hydroxymethyl)piperidine-1-carboxamido)pyrazine-2-carboxamide], for which the dissociation constant (Kd) was determined as 299 nM in assay [1] (setting [5]) and 265 nM in assay [3] (setting [6]). Moreover, in assay [2], the concentration giving a half-maximal response (EC50) turned out to be 712 nM.

Turning to `CC(C)(C)OC(=O)N1CCN(C(=O)Nc2nccnc2C(=O)NC2Cc3ccccc3C2)CC1` [Compound 13, tert-butyl 4-((3-((2,3-dihydro-1H-inden-2-yl)carbamoyl)pyrazin-2-yl)carbamoyl)piperazine-1-carboxylate], the Kd in assay [1] (setting [7]) is over 2180 nM; in assay [1] (setting [5]) it was over 2860 nM; in assay [3] it was over 5090 nM; in assay [3] (setting [6]), over 8720 nM.

In the case of `O=C(NC1Cc2ccccc2C1)c1nccnc1NC(=O)N1CCNCC1` [Compound 14, N-(2,3-dihydro-1H-inden-2-yl)-3-(piperazine-1-carboxamido)pyrazine-2-carboxamide dihydrochloride], the equilibrium dissociation constant (Kd) was 1630 nM in assay [1] (setting [7]), over 2860 nM in assay [1] (setting [5]), over 8720 nM in assay [3] (HsProRS (KD [nM]) −) and 347 nM in assay [3] (setting [4]).

On to `CC(C)(C)OC(=O)NC1(C(=O)Nc2nccnc2C(=O)NC2Cc3ccccc3C2)CCCCC1` [Compound 16, tert-butyl (1-((3-((2,3-dihydro-1H-inden-2-yl)carbamoyl)pyrazin-2-yl)carbamoyl)cyclohexyl)carbamate], for which the dissociation constant Kd is over 2180 nM in assay [1] (setting [7]), over 2860 nM in assay [1] (setting [5]), over 5090 nM in assay [3] and over 8720 nM in assay [3] (setting [6]). In addition, the half-maximal effective concentration (EC50) in assay [2] stood at 6110 nM.

Turning to `NC1(C(=O)Nc2nccnc2C(=O)NC2Cc3ccccc3C2)CCCCC1` [Compound 17, 3-(1-aminocyclohexane-1-carboxamido)-N-(2,3-dihydro-1H-inden-2-yl)pyrazine-2-carboxamide], the Kd in assay [1] (setting [7]) turned out to be 131 nM; in assay [1] (setting [5]), 1390 nM; in assay [3] (setting [6]), 4430 nM; in assay [3] (setting [4]), 25.5 nM. In addition, the half-maximal effective concentration (EC50) in assay [2] was determined as 5790 nM.

Take `O=C(NC1Cc2ccccc2C1)c1nccnc1NC(=O)C1CCOCC1` [Compound 18, N-(2,3-dihydro-1H-inden-2-yl)-3-(tetrahydro-2H-pyran-4-carboxamido)pyrazine-2-carboxamide]: the Kd in assay [1] (setting [7]) was 1590 nM; in assay [1] (setting [5]) it was over 2860 nM; in assay [3] (setting [6]) it was 7400 nM; in assay [3] (setting [4]), 225 nM. The concentration for a half-maximal effect (EC50) in assay [2] was over 20000 nM.

Regarding `O=C(Nc1nccnc1C(=O)NC1Cc2ccccc2C1)c1ccccc1` [Compound 21, 3-benzamido-N-(2,3-dihydro-1H-inden-2-yl)pyrazine-2-carboxamide], the Kd in assay [1] (setting [7]) was 1430 nM; in assay [1] (setting [5]), over 2860 nM; in assay [3] (setting [6]), 7830 nM; in assay [3] (setting [4]), 140 nM. Besides, the EC50 in assay [2] is 9600 nM.

Consider `O=C(O)CCCC(=O)Nc1nccnc1C(=O)NC1Cc2ccccc2C1` [Compound 22, 5-((3-((2,3-dihydro-1H-inden-2-yl)carbamoyl)pyrazin-2-yl)amino)-5-oxopentanoic acid], for which the Kd was over 2180 nM in assay [1] (setting [7]), over 2860 nM in assay [1] (setting [5]), over 5090 nM in assay [3] and over 8720 nM in assay [3] (setting [6]). Besides, the concentration for a half-maximal effect (EC50) in assay [2] was found to be 12300 nM.

In the case of `NC(=O)Nc1nccnc1C(=O)NC1Cc2ccccc2C1` [Compound 23, N-(2,3-dihydro-1H-inden-2-yl)-3-ureidopyrazine-2-carboxamide], the equilibrium dissociation constant (Kd) in assay [1] (setting [7]) is over 2180 nM; in assay [1] (setting [5]) it was over 2860 nM; in assay [3], over 5090 nM; in assay [3] (setting [6]), over 8720 nM. Moreover, the EC50 in assay [2] was 12100 nM.

Take `Nc1nccnc1C(=O)NC1Cc2ccccc2C1` [Compound 45, 3-amino-N-(2,3-dihydro-1H-inden-2-yl)pyrazine-2-carboxamide]: the Kd is over 2180 nM in assay [1] (setting [7]), over 2860 nM in assay [1] (setting [5]), over 5090 nM in assay [3] and over 8720 nM in assay [3] (setting [6]). The EC50 in assay [2] was 13600 nM.

Turning to `CNc1nccnc1C(=O)NC1Cc2ccccc2C1` [Compound 46, N-(2,3-dihydro-1H-inden-2-yl)-3-(methylamino)pyrazine-2-carboxamide], the Kd in assay [1] (setting [7]) was over 2180 nM; in assay [1] (setting [5]), over 2860 nM; in assay [3], over 5090 nM; in assay [3] (setting [6]), over 8720 nM. Moreover, in assay [2], the half-maximal effective concentration (EC50) came to 8110 nM.

As for `O=c1[nH]c2nccnc2c(=O)n1C1Cc2ccccc2C1` [Compound 47, 3-(2,3-dihydro-1H-inden-2-yl)pteridine-2,4(1H,3H)-dione], the Kd in assay [1] (setting [7]) is over 2180 nM; in assay [1] (setting [5]) it was over 2860 nM; in assay [3] (setting [6]), over 8720 nM. Also, in assay [2], the half-maximal effective concentration (EC50) was determined as 11100 nM.

In the case of `Nc1nccnc1C(=O)NC1CCCCC1` [Compound 48, 3-amino-N-cyclohexylpyrazine-2-carboxamide], the dissociation constant (Kd) in assay [1] (setting [7]) is over 2180 nM; in assay [1] (setting [5]) it was over 2860 nM; in assay [3] it was over 5090 nM; in assay [3] (setting [6]) it was over 8720 nM. Besides, the EC50 in assay [2] worked out at 8740 nM.

For `CC(C)(C)OC(=O)NCCCCCC(=O)NCCCCCC(=O)NC1CCN(C(=O)Nc2nccnc2C(=O)NC2Cc3ccccc3C2)CC1` [MAT420], the Kd in assay [1] (setting [8]) is 332 nM; in assay [1] (read-out: PfcProRS (KD [nM]) −, no proline, no ATP), 292 nM; in assay [3] (setting [4]), 781 nM; in assay [3] (read-out: HsProRS (KD [nM]) −, no proline, no ATP) it was 415 nM.

On to `NCCCCCC(=O)NCCCCCC(=O)NC1CCN(C(=O)Nc2nccnc2C(=O)NC2Cc3ccccc3C2)CC1` [MAT421], for which the Kd in assay [1] (setting [5]) worked out at 2280 nM; in assay [1] (setting [8]), 1960 nM; in assay [3] (setting [6]), 2340 nM; in assay [3] (setting [4]), 2260 nM.

For the molecule `Nc1ncnc2c1ncn2[C@@H]1O[C@H](COS(=O)(=O)NC(=O)OC2CCCNC2CC(=O)Cn2cnc3cc(Br)c(Cl)cc3c2=O)[C@@H](O)[C@H]1O` (stereo partly drawn) [MAT430, ((2R,3S,4R,5R)-5-(6-amino-9H-purin-9-yl)-3,4-dihydroxytetrahydrofuran-2-yl)methy ((((2S,3R)-2-(3-(7-bromo-6-chloro-4-oxoquinazolin-3(4H)-yl)-2-oxopropyl)piperidin-3-yl)oxy)carbonyl)sulfamate], the dissociation constant Kd in assay [1] (setting [5]) stood at 5.01 nM; in assay [3] (setting [6]) it was 18.4 nM.

Regarding `O=C(CCCCCNC(=S)NC1CCCCC1)NC1CCN(C(=O)Nc2nccnc2C(=O)NC2Cc3ccccc3C2)CC1` [MAT483], the Kd in assay [1] (setting [5]) was found to be 198 nM; in assay [1] (setting [8]) it was 171 nM; in assay [3] (setting [6]), 1000 nM; in assay [3] (setting [4]), 3020 nM.

Take `O=C(NS(=O)(=O)N1CCN(C(=O)Nc2nccnc2C(=O)NC2Cc3ccccc3C2)CC1)OCCn1cnc2ccccc2c1=O` [MAT512, 2-(4-oxoquinazolin-3(4H)-yl)ethyl ((4-((3-((2,3-dihydro-1H-inden-2-yl)carbamoyl)pyrazin-2-yl)carbamoyl)piperazin-1-yl)sulfonyl)carbamate]: the half-maximal effective concentration (EC50) in assay [2] is over 10000 nM.

Source of the values: patent US20250228855A1, “PYRAZINAMIDE COMPOUNDS” (The General Hospital Corporation, priority 2022, published 2025).
